{
  "source": "patent US20250000869A1",
  "about": "“TOPICAL COMPOSITIONS OF 2-PHENYL-3, 4-DIHYDROPYRROLO [2, L-F] [1, 2, 4] TRIAZINONE DERIVATIVES AND USES THEREOF” (TOPADUR PHARMA AG, priority 2021, published 2025)",
  "key": {"[1]": {"test": "Solubility of Compound 1 in solvent systems comprising PEG400", "assay_type": "physicochemical", "details": "room temperature, read-out: Determined Solubility", "source_text": "A solubility study of Compound 1 in solvent systems comprising PEG400 in various concentrations was effected."}, "[2]": {"test": "Plasma concentrations after topical, on wound administration (satellite study, LC-MS/MS)", "assay_type": "in vivo, C57BL/6J mice", "protocol": "In order to address the systemic exposure following topical, on wound administration of Compound 1, in a satellite study, plasma concentrations of Compound 1 was measured. To this end, eight male C57BL/6J mice (12 weeks of age, body weight 26.8±0.4 g (Mean±SD)) underwent surgery for generation of one full thickness, excisional, cutaneous wounds, in an identical procedure as described above. The study was performed in C57BL/6J mice due to limited availability of uPAR−/− mice. As described before, Compound 1 (in form of Topical Composition A2) was added in a dose volume of 25 μl to the wounds as a single dose. The dose related to body weight was approximately 0.565 μg/kg (from a total of 25 μl of 1 μM Compound 1 per mouse). Peripheral venous blood was sampled from the tail tip (or by cardiac puncture for the final sampling) in four mice at time points (min) 1, 5, 15, 30, 60 post administration of Compound 1 and in another four mice at time points (h) 1, 2, 4, 6, 24 post administration of Compound 1. Plasma was generated and Compound 1 measured by LC-MS/MS. The LLOQ for Compound 1 was at 800 pg/ml corresponding to 1.32 nM. […] Considering the plasma protein binding of Compound 1 in mice with unbound fractions (fu) of 0.08% for Compound 1 the unbound plasma concentrations should have been <[…] for Compound 1, corresponding to <[…] for Compound 1 when extrapolated to administration to two wounds per mice as this was done in the main efficacy study, under the assumption of dose linearity."}, "[3]": {"target": "PDE5 (Homo sapiens, UniProt O76074)", "test": "IC50 of Compound 1 (earlier effected measurements)", "assay_type": "biochemical"}, "[4]": {"test_system": "C57Bl/6J mice", "test": "Ulcer core perfusion of full thickness excisional cutaneous wounds by LSCI/LASCA", "assay_type": "in vivo", "details": "single dose 25 μl per wound, almost all times of measurements", "protocol": "Effects of a single dose of Topical Composition A2, Topical Composition A4, and Vehicle Composition A, when administered on the perfusion of the ulcer core of full thickness excisional cutaneous wounds in C57B1/6J mice was investigated. Thus, Topical Compositions A2 and A4 were applied in a dose volume of 25 μl per wound. Each individual mouse had surgery for two wounds located symmetrical to the dorsal midline using 8 mm diameter punch biopsy devices.\nTopical Compositions A2 and A4 or Vehicle Composition A were randomly administered to one or the other wound under a blinded protocol. This procedure enabled an intra-individual comparison between Compound 1 and its composition vehicle. Perfusion of the ulcer core as well as of the periulcer region was separately measured by Laser Speckle Contrast Imaging (LSCI)/Laser Speckle Contrast Analysis (LASCA) using a Perimed device. LASCA wound perfusion measurements of digital ulcers in SSc were previously shown to correlate with time to healing (Barsotti S et al Clin Rheumatol. (2020) 39(1):69-75).\nIn detail, a single application of Topical Compositions A2 and A4 or Vehicle Composition A, each at a volume of 25 μl per wound was randomly administered either to the right or left of two full thickness cutaneous wounds per mouse generated by 8 mm punch biopsies and symmetrically to the dorsal midline, at 24 h after surgery. […]"}},
  "note": "Like-named read-outs stand apart in the source and are kept apart here.",
  "data": [
    {"smiles": "CCCOc1ccc(S(=O)(=O)N2CCC(CCO[N+](=O)[O-])CC2)cc1-c1nn2c(CCC)c(/C=N/O)c(C)c2c(=O)[nH]1", "note": "[Compound 1, 2-[1-(3-{6-[(1E)-(hydroxyimino)methyl]-5-methyl-4-oxo-7-propyl-3H,4H-pyrrolo[2,1-f][1,2,4]triazin-2-yl}-4-propoxybenzenesulfonyl)piperidin-4-yl]ethyl nitrate]", "values": [
      {"measurement": "solubility", "setting": "[1]; aqueous with cosolvent or surfactant or cyclodextrin, PEG400:benzyl alcohol:phosphate buffer (44:1:55) vol:vol, Phosphate buffer 12 mmol/L pH 6.7", "result": 0.861, "unit": "µg/mL"},
      {"measurement": "solubility", "setting": "[1]; aqueous with cosolvent or surfactant or cyclodextrin, PEG400:benzyl alcohol:phosphate buffer (49:1:50) vol:vol, Phosphate buffer 12 mmol/L pH 6.7", "result": 2.18, "unit": "µg/mL"},
      {"measurement": "solubility", "setting": "[1]; aqueous with cosolvent or surfactant or cyclodextrin, PEG400:benzyl alcohol:phosphate buffer (54:1:45) vol:vol, Phosphate buffer 12 mmol/L pH 6.7", "result": 5, "unit": "µg/mL"},
      {"measurement": "solubility", "setting": "[1]; aqueous with cosolvent or surfactant or cyclodextrin, PEG400:benzyl alcohol:phosphate buffer (59:1:40) vol:vol, Phosphate buffer 12 mmol/L pH 6.7", "result": 12.8, "unit": "µg/mL"},
      {"measurement": "solubility", "setting": "[1]; aqueous with cosolvent or surfactant or cyclodextrin, PEG400:benzyl alcohol:phosphate buffer (64:1:35) vol:vol, Phosphate buffer 12 mmol/L pH 6.7", "result": 37, "unit": "µg/mL"},
      {"measurement": "solubility", "setting": "[1]; aqueous with cosolvent or surfactant or cyclodextrin, PEG400:benzyl alcohol:phosphate buffer (69:1:30) vol:vol, Phosphate buffer 12 mmol/L pH 6.7", "result": 112, "unit": "µg/mL"},
      {"measurement": "solubility", "setting": "[1]; aqueous with cosolvent or surfactant or cyclodextrin, PEG400:benzyl alcohol:phosphate buffer (79:1:20) vol:vol, Phosphate buffer 12 mmol/L pH 6.7", "result": 882, "unit": "µg/mL"},
      {"measurement": "solubility", "setting": "[1]; aqueous with cosolvent or surfactant or cyclodextrin, PEG400:benzyl alcohol:phosphate buffer (89:1:10) vol:vol, Phosphate buffer 12 mmol/L pH 6.7", "result": 1770, "unit": "µg/mL"},
      {"measurement": "solubility", "setting": "[1]; organic solvent or mixture, PEG400:benzyl alcohol (99:1) vol:vol", "result": 12700, "unit": "µg/mL"},
      {"measurement": "unbound plasma concentration extrapolated to two wounds per mice", "setting": "[2]; assumption of dose linearity", "result": "< 2120", "unit": "nM"},
      {"measurement": "unbound plasma concentration", "setting": "[2]; calculated from LLOQ and fu, one wound per mouse", "result": "< 1060", "unit": "nM"},
      {"measurement": "plasma concentration of Compound 1", "setting": "[2]; single on wound dose 25 μl Topical Composition A2 (approx. 0.565 μg/kg), 1 min to 24 h, all time points and mice, LLOQ 800 pg/ml", "result": "< 1.32", "unit": "nM"},
      {"measurement": "IC50", "setting": "[3]", "result": 1.18, "unit": "nM"},
      {"measurement": "ulcer core perfusion compared to Vehicle Composition A", "setting": "[4]", "result": "increases perfusion of ulcer core"}
    ]}
  ]
}
